Source: paper PMC10112232, “Comparison of Toxicities among Different Bumped Kinase Inhibitor Analogs for Treatment of Cryptosporidiosis” (Antimicrobial Agents and Chemotherapy, 2023)
Like-named read-outs stand apart in the source and are kept apart here.

Tests used:
[1] = Plasma concentrations and clinical toxicity signs in treated neonatal calves; format: in vivo, calf; conditions: for Cmax: bovine, plasma
Description: (§1) There were also improvements in the treated calves in both fecal volume and consistency, urine output, weight gain and daily clinical scores compared to control calves (Fig. S3). […] Fecal volume, fecal consistency, and clinical scores were improved for all treatment groups compared to controls, but these improvements were delayed for the 1 mg/kg group.
(§2) BKI-1841 was dosed at 5, 2, and 1 mg/kg BID for 3 days and 2 mg/kg QD for 4 days (Fig. 5, Fig. S4). […] Urine output was consistent for all groups, including controls, and fecal volume and consistency were improved for all groups over controls (Fig. S4). […] This occurred to some degree with all dosing regimens, developing with the fewest doses at 5 mg/kg BID. With the lowest dose of 1 mg/kg BID, the onset of dropped pasterns began after the third dose and continued until self-resolving 2 days after dosing concluded. All signs of dropped pasterns were gone by the end of the experiment on day 10 postinfection.

[2] = Mouse locomotor activity box; format: in vivo; conditions: mice, 150 mg/kg QD for 5 days; for distance traveled / stereotypic horizontal activity / vertical rearing activity: vs controls
Description: BKIs –1770, -1841, and -1708 were tested in the mouse locomotor activity box to screen for possible neurological issues (Fig. S7). All three BKIs were dosed at 150 mg/kg QD for 5 days.
(§3) Methods for synthesis of BKIs ([17], [23]), efficacy against Nluc expressing C. parvum in infected adult IFN-γ KO mice ([6], [9]), in vivo mouse GI tract tissue exposure by LC/MS-MS analysis ([18], [28]), PK analysis of mouse plasma and brain tissue BKI concentrations by LC/MS-MS analysis ([29]), in vivo rat and dog cardiotoxicity screen ([30]), efficacy against IOWA-II strain C. parvum in infected neonatal calves ([13]), efficacy against C. hominis in infected piglets ([12]), in vitro inhibition of C. parvum CDPK1 (CpCDPK1) and human tyrosine kinase SRC (HsSRC) activity ([31]), in vitro inhibition of hERG ([32]), Nluc expressing C. parvum in vitro growth inhibition in infected HCT-8 cells ([6]), in vitro cytotoxicity in CRL-8155 and HepG2 cells ([29]), and mouse locomotor activity box ([33], [34]) have all been previously described. Analytes were measured by LC/MS-MS on an Acquity ultra performance liquid chromatography (UPLC) system in tandem with a Xevo TQ-S mass spectrometer (Waters, Milford, MA, USA).

[3] = Pharmacokinetics in mice (plasma, brain, GI tissues) by LC/MS-MS; format: in vivo, mouse; conditions: for Kp: mouse, brain, read-out: brain penetration (brain tissue to plasma area-under-the-curve)
Description: For evaluation of its suitability for in vivo dosing, BKI-1841 was also tested in mice for plasma exposure after a single dose (Fig. 2). […] A dose of 25 mg/kg BKI-1841 was used to evaluate brain penetration over 4 h using the same method (Fig. 2).
as §3

[4] = Multidose mouse toxicity, tibial epiphyseal growth plate; format: in vivo; conditions: for gross signs of toxicity / width of the tibia epiphyseal growth plate vs vehicle controls: 3 week old mice, oral 150 mg/kg QD for 7 days; for width of the tibia epiphyseal growth plate vs vehicle controls: n = 3
Description: The recurring presence of toxicity in calves manifesting as dropped pasterns, as well as the observations of bone toxicity in rats, led to the exploration of possible bone toxicity screening in mice to allow for screening prior to dosing in larger animals. To test for effects to the growth plate in developing bones, 3 week old mice were dosed for 7 days QD and euthanized 24 h after the final dose. The right and left tibia were dissected from each mouse and stained with AgNO3 to visualize the growth plate and measurements across the widths compared to vehicle-only treated controls. […] The remaining two mice for this treatment were immediately euthanized and their tibias extracted early on day 4.
Mouse toxicity testing and evaluation of the tibial epiphyseal plate have been previously described ([18], [38]) and were performed with some modifications. Briefly, 3 week old BALB/c mice (n = 3) were dosed orally once daily for 7 days. Mice were euthanized along with vehicle treated controls by cardiac puncture for collection of blood for analysis. Necropsy, obtaining blood for serum chemistries, histology of organs (brain, heart, lungs, spleen, liver, stomach, small intestine, large intestine and kidney), and removal of tibias were performed within 24 h of the final dose. Examination of organ histology included routine H&E and Oil-Red O (lipid)-stained organs from the treated mice and a set of untreated matched controls. Pathological examination was performed by a board certified pathologist who was blinded to the treatment and control group identities. Tibias were removed and immediately placed in dH2O for a minimum of 1 h. Using a fresh number 11 scalpel blade, a quick sagittal cut was made across the femoral condyle opposite the fibula, and a second cut was made across the second femoral condyle separating the fibula and tibia. The tibias were then immersed in acetone for 1 h to dehydrate. Dehydrated tibias were washed in dH2O for 2 min, then soaked in 1.5% AgNO3 for 1 min in a container protected from light. Tibias were then rinsed in dH2O for 2 min and exposed to strong light for 10 sec. Stained tibias were stored in 70% ethanol for >10 min before examining the growth plates at ×40 magnification using an Amscope stereo microscope with a mounted camera. Photos were taken using the Amscope image capture software. A calibration slide was used to establish a μm to pixel ratio of 1:1.184. Using the Measurement Tool, 10 measurements were taken across each epiphyseal plate by orienting the cursor at right angles from the growth plate borders by two different researchers (one set unblinded; one set blinded) and average width was assigned to each tibia from each animal.

C. parvum = experiment: Efficacy in neonatal calves infected with C. parvum; format: in vivo
Description: as §1
Total oocyst excretion determined by RT-PCR concentration and total by fecal weight shed per day. (A) Oocyst excretion per day after treatment with BKI-1770. […] (C) Oocyst excretion per day after treatment with BKI-1841. (D) Cumulative total oocyst excretion for days 3 through 10 after treatment with BKI-1841. […] BKI-1841 BID treatments were administered on days 2 through 4 and QD treatments were administered on days 2 through 5. […] QD = once daily, BID = twice daily.
as §2, §3

With `CCOc1ccc2cc(-c3nn(C4CCOCC4)c(N)c3C(N)=O)ccc2n1` [BKI-1841] the predose plasma concentration ([1]; 1 mg/kg BID, last day of treatment) was 1.3 ± 0.1 µM, the ataxia ([1]; 5 mg/kg BID, during the 3 days of dosing) was “signs of ataxia” and the “hyperflexion of the limbs (dropped pasterns)” value ([1]; all dosing regimens (5, 2, 1 mg/kg BID 3 days; 2 mg/kg QD 4 days)) was “all calves dosed with BKI-1841 showed signs of hyperflexion of the limbs seen as dropped pasterns”. The safety index ([1]; dropped pasterns at lowest dose tested (1 mg/kg BID)) was under 1, the “overall effect on locomotor activity” value [2] was “depression in movement” and the distance traveled [2] was “significant (P < 0.05) decrease”. For the same molecule, the stereotypic horizontal activity [2] was “significant (P < 0.05) decrease”, the vertical rearing activity [2] was “significant (P < 0.05) decrease” and the plasma exposure ([3]; for more than 6 h after a single 25 mg/kg dose in mice) was over 1 µM. For the same molecule, the signs of toxicity ([3]; mice, single 25 mg/kg dose) was “no signs of toxicity”, the Kp ([3]; mice, single 25 mg/kg oral dose, over 4 h) was 0.27 and the “gross signs of toxicity” value [4] was “no gross signs of toxicity”. The “width of the tibia epiphyseal growth plate vs vehicle controls” value [4] was “did not show significant increases”, the “blood chemistry and histology vs control animals” value ([4]; mice (data not shown)) was “no abnormalities or indications of toxicity” and the “total oocyst excretion reduction” value (C. parvum; 1 mg/kg BID for 3 days) was “little reduction”. The “total oocyst excretion per day vs controls” value (C. parvum; 1 mg/kg group) was “no significant difference”, the “total oocyst excretion reduction” value (C. parvum; 5 mg/kg BID for 3 days and 2 mg/kg BID given for 3 or 4 days) was 2 to 4 log and the “total oocyst excretion per day vs controls” value (C. parvum; 5 mg/kg and both 2 mg/kg groups) was “significant differences”.

With `CCOc1ccc2cc(-c3nn(C(C)(C)CCO)c(N)c3C(N)=O)ccc2c1` [BKI-1770] the “hyperflexion of the limbs (dropped pasterns)” value ([1]; 5 mg/kg BID for 5 days) was “observed in two of the 5 mg/kg calves”, the bloody diarrhea ([1]; 5 mg/kg BID, one calf) was “some bloody diarrhea” and the Cmax ([1]; 3 mg/kg BID, at 4 h post dose 1, read-out: plasma observed Cmax) was 3.4 ± 0.06 µM. For the same molecule, the Cmax ([1]; 5 mg/kg BID, at 4 h post dose 5, read-out: plasma observed maximum concentration (Cmax)) was 10.3 ± 5.4 µM, the “overall effect on locomotor activity” value [2] was “depression in movement” and the distance traveled [2] was “significant (P < 0.05) decrease in distance traveled from 20 to 60 min”. The stereotypic horizontal activity [2] was “increased horizontal activity from 0 to 40 min”, the vertical rearing activity [2] was “decreased vertical activity throughout the study” and the “time to depletion in plasma to submicromolar concentrations” value ([3]; mice, after oral dosing) was 1 to 2 h. The ileum tissue concentration ([3]; mice, single 30 mg/kg oral dose, through 12 h) was over 1 µM, the Kp ([3]; mice, single 30 mg/kg oral dose) was 0.1 and the “gross signs of toxicity” value [4] was “no gross signs of toxicity”. The “width of the tibia epiphyseal growth plate vs vehicle controls” value [4] was “significant (P < 0.05) increases”, the total oocysts excreted (C. parvum; 5 mg/kg BID for 5 days (n = 5), days 3 to 10 postinfection, control 1.62E10) was 2.58E9 oocysts and the minimal efficacious dose (C. parvum; BID) was 3 mg/kg. For the same molecule, the “total oocyst excretion per day vs controls” value (C. parvum; all dosed groups (5, 3, 2, 1 mg/kg BID for 5 days)) was “significant differences”.
